Broadly, the IC50 is the midpoint of a concentration-inhibition curve.

The target of one data set is T1, androgen receptor (AR) (Homo sapiens, UniProt P10275, T878A).
T1 construct: LNCaP cells were transiently transfected with the PSA (6.1 kb)-luciferase reporter for 24 h; endogenous in cells; host or cells: LNCaP
T1 sequence (P10275 1-920 T878A): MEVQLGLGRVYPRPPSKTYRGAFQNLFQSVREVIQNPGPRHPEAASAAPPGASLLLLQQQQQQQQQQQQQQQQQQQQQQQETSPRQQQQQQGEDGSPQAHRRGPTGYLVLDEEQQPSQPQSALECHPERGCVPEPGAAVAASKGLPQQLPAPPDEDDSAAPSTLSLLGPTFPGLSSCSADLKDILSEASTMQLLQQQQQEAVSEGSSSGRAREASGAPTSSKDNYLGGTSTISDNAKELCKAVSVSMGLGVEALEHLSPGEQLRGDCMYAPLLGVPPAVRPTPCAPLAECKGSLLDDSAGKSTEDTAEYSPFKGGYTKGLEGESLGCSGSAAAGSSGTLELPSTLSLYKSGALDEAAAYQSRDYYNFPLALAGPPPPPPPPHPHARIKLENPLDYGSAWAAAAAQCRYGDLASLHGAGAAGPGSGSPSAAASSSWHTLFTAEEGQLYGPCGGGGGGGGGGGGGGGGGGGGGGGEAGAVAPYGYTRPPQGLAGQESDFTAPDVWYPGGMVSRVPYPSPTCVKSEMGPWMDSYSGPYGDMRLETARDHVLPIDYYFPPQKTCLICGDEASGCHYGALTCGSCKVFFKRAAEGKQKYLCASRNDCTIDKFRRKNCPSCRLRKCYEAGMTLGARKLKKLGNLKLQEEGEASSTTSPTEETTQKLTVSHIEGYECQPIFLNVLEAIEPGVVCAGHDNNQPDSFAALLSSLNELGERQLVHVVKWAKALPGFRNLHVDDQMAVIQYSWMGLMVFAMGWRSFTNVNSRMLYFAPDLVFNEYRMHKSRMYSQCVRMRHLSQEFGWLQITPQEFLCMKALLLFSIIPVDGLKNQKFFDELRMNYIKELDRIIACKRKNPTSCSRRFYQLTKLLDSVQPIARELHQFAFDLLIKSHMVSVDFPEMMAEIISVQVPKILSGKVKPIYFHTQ
As to the kind of experiment: Androgen-induced PSA (6.1 kb)-luciferase reporter assay in LNCaP cells. The format is cell-based. Particulars: LNCaP cells transfected with PSA (6.1 kb)-luciferase reporter, R1881 1 nM, 24 h; read-out: PSA-Luc IC50 Range. The procedure:
The PSA (6.1 kb)-luciferase reporter contains functional AREs (androgen response elements) to which AR binds in response to androgen to induce luciferase activity.
Cells were lysed using Passive Lysis Buffer (Promega) and then collected into V-bottom 96-well tissue culture plates. Lysates were centrifuged at 4° C. for 5 minutes at 3000 rpm. To measure luminescence of LNCaP cell lysates the Firefly Luciferase Assay System (Promega) was employed, according to manufacturer's protocol. Relative luminescence units (RLU) in cell lysates were detected for 10 seconds using Promega GloMax-Multi Detection Luminometer (Promega). Values were normalized to protein content. GraphPad Prism graphing software was used to calculate IC50 values.
Comparisons between treatment and control groups were compared using Two-Way ANOVA with post-hoc Dunnett's and Tukey's tests. Differences were considered statistically significant at P values less than 0.05.
For orientation: Reporter assays use an easily measured gene product as a stand-in for the process of interest.

Data set [1] in a line: Microsomal stability assay, mouse liver microsomes. The format is in vitro ADME. The settings on record: mouse, liver microsomes, pH 7.4, mouse liver microsomes, 1 μM compound, 0.5 mg/mL protein, 37° C.; read-out: MLM +30/− NADPH: Clint (μL/min/mg protein). As for the experimental part:
(§1) Microsomal stability assay is a widely used in vitro model to characterize the metabolic conversion by phase I enzymes, such as cytochrome P450 (CYP) enzymes. Since metabolism is known to be highly variable in different species, microsomal stability assay is commonly run in multiple species. Metabolic stability of testing compound can be evaluated using human, rat, mouse, or other animal liver or intestine microsomes to predict intrinsic clearance.
(§2) The assay was carried out in 96-well microtiter plates at 37° C. Reaction mixtures (25 μL) contained a final concentration of 1 μM test compound, 0.5 mg/mL liver microsomes protein, and 1 mM NADPH and/or 1 mM UDPGA (with alamethicin) in 100 mM potassium phosphate, pH 7.4 buffer with 3 mM MgCl2. The incubation was done with N=1, but duplicate incubation at each time point can be prepared if necessary. At each of the time points (for example, 0, 15, 30, and 60 minutes), 150 μL of quench solution (100% acetonitrile with 0.1% formic acid) with internal standard was transferred to each well. Besides the zero minute controls, mixtures containing the same components except the NADPH can also be prepared as the negative control. Verapamil was included as a positive control to verify assay performance. Plates were sealed, vortexed, and centrifuged at 4° C. for 15 minutes at 4000 rpm. The supernatant is transferred to fresh plates for LC/MS/MS analysis.
(§3) Summarized conditions: [Compound]=[…], [LM]=0.5 mg/mL, [NADPH]=1 mM and/or [UDPGA]=1 mM, Buffer=100 mM Potassium Phosphate, pH 7.4 with 3 mM MgCl2, Time=0, 15, 30, and 60 min, and Temperature=37° C.
(§4) All samples were analyzed on LC/MS/MS using an AB Sciex API 4000 instrument, coupled to a Shimadzu LC-20AD LC Pump system. Analytical samples were separated using a Waters Atlantis T3 dC18 reverse phase HPLC column (20 mm×2.1 mm) at a flow rate of 0.5 mL/min. The mobile phase consisted of 0.1% formic acid in water (solvent A) and 0.1% formic acid in 100% acetonitrile (solvent B).
(§5) The extent of metabolism is calculated as the disappearance of the test compound, compared to the 0-min time incubation. Initial rates are calculated for the compound concentration and used to determine half-life (t½) values and subsequently, the intrinsic clearance (Clint). Clint=(0.693)(1/t½ (min))(g of liver/kg of body weight)(mL incubation/mg of microsomal protein)(45 mg of microsomal protein/g of liver weight)
On the technique in general: Liver microsomes are a subcellular fraction often used to study metabolism.

Data set [2] can be described thus: Microsomal stability assay, human liver microsomes. The format is in vitro ADME. The settings on record: pH 7.4, 1 μM compound, 0.5 mg/mL protein, 37° C., read-out: HLM +/− NADPH: Clint (μL/min/mg protein). The procedure: as §1, §2, §3, §4, §5
Data set [3] is described as follows: Hepatocyte stability assay, mouse hepatocytes. The format is in vitro ADME. The settings on record: mouse, cryopreserved hepatocytes, 1 μM compound, 0.5 million cells/mL, 37° C., read-out: MH +/− NADPH: Clint (μL/min/million cells).
Text: The […] of in vitro intrinsic clearance (Clint) for drug candidates in the early discovery stage is common practice in the pharmaceutical industry. The Clint values of drug candidates can help to confirm whether metabolism is the main clearance pathway when it is compared with the total body clearance in vivo. Hepatocytes are among the routinely used in vitro systems for measuring clearance. Hepatocytes have been reported to retain most of the phase I and phase II metabolic activities, and therefore, it is a useful tool to estimate the intrinsic clearance for potential drug candidates.
Metabolic stability of testing compound were be evaluated using human and mouse hepatocytes and can also be use rat, mouse, or other animal hepatocytes to predict intrinsic clearance. Cryopreserved hepatocytes were removed from the liquid nitrogen tank and thawed in a 37° C. water bath. As soon as the cells pulled away from the vial wall, they were decanted into 48 ml of warm HT medium. Cells were centrifuged for four minutes at 420 rpm (50 g). After removing the supernatant, pellet was re-suspended in warm DMEM medium. Cell density was counted by a hemacytometer.
The assay was carried out in 96-well microtiter plates. Compounds were incubated for 0, 60, 120, and 180 minutes at 37° C. with hepatocytes. Reaction mixtures (50 μL) contained a final concentration of 1 μM test compound, 0.5 million cells/mL hepatocytes in the DMEM medium. At each of the time points (for example, 0, 1, 2, and 3 hours), 200 μL of quench solution (100% acetonitrile with 0.1% formic acid) with internal standard was transferred to each well. Midazolam was included as a positive control to verify assay performance. Plates were sealed and centrifuged at 4° C. for 15 minutes at 4000 rpm. The supernatant is transferred to fresh plates for LC/MS/MS analysis.
Summarized conditions (customizable): [Compound]=[…], Positive control: midazolam and/or naloxone, [Hepatocyte]=0.5 million cells/Ml, time=0, 60, 120, and 180 min, t=37° C.
as §4
The extent of metabolism was calculated as the disappearance of the test compound, compared to the 0-min control reaction incubations. Initial rates were calculated for the compound concentration and used to determine t½ values and subsequently, the intrinsic clearance, Clint. Clint=(0.693)(1/t½(min))(mL incubation/million cells)

Turning to `Cn1c(COc2ccc(C(C)(C)c3cc(Cl)c(OCCCl)c(C#N)c3)cc2)ccc1S(C)(=O)=O` [Compound A193], the half-inhibitory concentration (IC50) at androgen receptor (AR) was in the range of 500 to 2000 nM. Moreover, the microsomal CLint at 1 μM in data set [1] and in data set [2] was at least 48 µL/min/mg each time. The hepatocyte CLint at 1 μM in data set [3] was in the range of 4 to 18 µL/min/1e6 cells.
`CSc1nc(C)c(COc2ccc(C(C)(C)c3cc(Cl)c(OCCCl)c(C#N)c3)cc2)o1` [Compound A119]: the IC50 on androgen receptor (AR) is below 500 nM. In addition, the microsomal CLint at 1 μM in data set [1] and in data set [2] was at least 48 µL/min/mg throughout. For the same compound, the hepatocyte CLint at 1 μM in data set [3] fell in the range of 4 to 18 µL/min/1e6 cells.
In the case of `CC(C)(c1ccc(OCc2ccnc(S(C)(=O)=O)n2)cc1)c1cc(Cl)c(OCCCl)c(C#N)c1` [Compound A124], at androgen receptor (AR), the IC50 is above 2000 nM. Besides, the microsomal CLint at 1 μM in data set [1] is at least 48 µL/min/mg; in data set [2], below 12 µL/min/mg. The hepatocyte CLint at 1 μM in data set [3] was at least 18 µL/min/1e6 cells.
As to `Cc1nc(N)cc(COc2ccc(C(C)(C)c3cc(Cl)c(OCCCl)c(C#N)c3)cc2)n1` [Compound A162], at androgen receptor (AR), the IC50 was below 500 nM. The microsomal CLint at 1 μM in data set [1] is at least 48 µL/min/mg; in data set [2] it was 12 to 48 µL/min/mg. Also, in data set [3], the hepatocyte CLint at 1 μM is at least 18 µL/min/1e6 cells.
Consider `CC(C)(c1ccc(OCc2cnc(Cl)o2)cc1)c1cc(Cl)c(OCCCl)c(C#N)c1` [Compound A115], for which the IC50 at androgen receptor (AR) is below 500 nM. The microsomal CLint at 1 μM in data set [1] and in data set [2] was below 12 µL/min/mg throughout. Moreover, the hepatocyte CLint at 1 μM in data set [3] is at least 18 µL/min/1e6 cells.
Turning to `CC(C)(c1ccc(OCc2csc(S(C)(=O)=O)n2)cc1)c1cc(Cl)c(OCCCl)c(C#N)c1` [Compound A144], the microsomal CLint at 1 μM in data set [1] and in data set [2] was 12 to 48 µL/min/mg in each case. Moreover, the hepatocyte CLint at 1 μM in data set [3] was at least 18 µL/min/1e6 cells.
As to `CC(C)(c1ccc(C(=O)Nc2ccnc(N)n2)cc1)c1cc(Cl)c(OCCCl)c(Cl)c1` [Compound A146], the values for the microsomal CLint at 1 μM in data set [1] and in data set [2] were below 12 µL/min/mg and 12 to 48 µL/min/mg, respectively. Further, in data set [3], the hepatocyte CLint at 1 μM was at least 18 µL/min/1e6 cells.
For `CC(C)(C)C(=O)N(c1ccc(OCc2coc(NS(C)(=O)=O)n2)cc1)c1cc(Cl)c(OCCCl)c(C#N)c1` [Compound A127], the microsomal CLint at 1 μM in data set [1] and in data set [2] was 12 to 48 µL/min/mg in each case. For the same compound, the hepatocyte CLint at 1 μM in data set [3] was in the range of 4 to 18 µL/min/1e6 cells.
Turning to `CC(C)(c1ccc(OCc2coc(S(C)(=O)=O)n2)cc1)c1cc(Cl)c(OCCCl)c(Cl)c1` [Compound A68], at androgen receptor (AR), the half-inhibitory concentration (IC50) was below 500 nM. For the same compound, the microsomal CLint at 1 μM in data set [1] and in data set [2] was below 12 µL/min/mg throughout.
As for `CC(C)(c1ccc(OCc2nccc(NS(C)(=O)=O)n2)cc1)c1cc(Cl)c(OCCCl)c(Cl)c1` [Compound A42], the IC50 at androgen receptor (AR) fell in the range of 500 to 2000 nM. Also, the microsomal CLint at 1 μM in data set [1] and in data set [2] was below 12 µL/min/mg each time.
On to `CC(C)(c1ccc(NC(=O)c2coc(NS(C)(=O)=O)n2)cc1)c1cc(Cl)c(OCCCl)c(Cl)c1` [Compound A49, N-(4-(2-(3,5-Dichloro-4-(2-chloroethoxy)phenyl)propan-2-yl)phenyl)-2-(methylsulfonamido)oxazole-4-carboxamide], for which the IC50 on androgen receptor (AR) is above 2000 nM. The microsomal CLint at 1 μM in data set [1] is below 12 µL/min/mg; in data set [2], 12 to 48 µL/min/mg.
`CN1C(=O)N(Cc2ccc(C(C)(C)c3cc(Cl)c(OCCCl)c(Cl)c3)cc2)C(=O)C1(C)C` [Compound B2, 3-(4-(2-(3,5-Dichloro-4-(2-chloroethoxy)phenyl)propan-2-yl)benzyl)-1,5,5-trimethylimidazolidine-2,4-dione]: the concentration for half-maximal inhibition (IC50) at androgen receptor (AR) is below 500 nM. Besides, the microsomal CLint at 1 μM in data set [1] and in data set [2] was at least 48 µL/min/mg each time.
As for `CC(O)(c1ccc(OCc2ocnc2S(C)(=O)=O)cc1)c1cc(Cl)c(OCCCl)c(C#N)c1` (centres unmarked) [Compound A77], the IC50 on androgen receptor (AR) was in the range of 500 to 2000 nM. The microsomal CLint at 1 μM in data set [1] was at least 48 µL/min/mg; in data set [2], 12 to 48 µL/min/mg.
For `CC(C)(c1ccc(OCc2nc(C(N)=O)co2)cc1)c1cc(Cl)c(OCCCl)c(C#N)c1` [Compound A173] the same measures were above 2000 nM, below 12 µL/min/mg and below 12 µL/min/mg.
On to `CC(C)(c1cc(Cl)c(OCCCl)c(Cl)c1)c1ccc(OCc2ocnc2S(C)(=O)=O)c(C#N)c1` [Compound A30], for which the 50% inhibitory concentration (IC50) on androgen receptor (AR) was 500 to 2000 nM. Also, the microsomal CLint at 1 μM in data set [1] and in data set [2] was 12 to 48 µL/min/mg in each case.

These data come from US11059795B2, “Androgen receptor modulators and methods for their use” (ESSA Pharma, Inc., priority 2018, dated 2021).
